One data set has as its system arthritic rats. Kind of data set: Analgesic activity: effect on adjuvant arthritis in rats (Randall-Selitto). The data set is classed as in vivo, Lewis rats. Conditions: single dose 3.2 mg/kg; mechanical pain threshold of left hind paw 2 hrs after administration; ratio to non-treated rats.
Another data set has as its target T1, COX-I (Homo sapiens, UniProt P23219).
T1 construct: Fresh blood was collected by syringe without anticoagulants from volunteers with consent; from tissue; host or cells: fresh human whole blood from volunteers, left to clot; TXB2 read-out
In words: Whole blood assay for COX-I (TXB2 production). The data set is classed as cell-based. Conditions: 1 hr at 37° C. The method, then: Whole blood assay for COX-I
Fresh blood was collected by syringe without anticoagulants from volunteers with consent. The subjects had no apparent inflammatory conditions and had not taken any medication for at least 7 days prior to blood collection.
500 μL Aliquots of human whole blood were immediately incubated with 2 μL of either dimethyl sulfoxide vehicle or a test compound at final concentrations for 1 hr at 37° C. to allow the blood to clot. Appropriate treatments (no incubation) were used as blanks. At the end of the incubation, 5 μL of 250 mM Indomethacin was added to stop the reaction. The blood was centrifuged at 6000×g for 5 min at 4° C. to obtain serum. A 100 μL aliquot of serum was mixed with 400 μL methanol for protein precipitation. The supernatant was obtained by centrifuging at 6000×g for 5 min at 4° C. and was assayed for TXB2 using an enzyme immunoassay kit according to the manufacturer's procedure. For a test compound, the results were expressed as percent inhibition of thromboxane B2(TXB2) production relative to control incubations containing dimethyl sulfoxide vehicle.
The data were analyzed by that a test compound at the indicated concentrations was changed log value and was applied simple linear regression. IC50 value was calculated by least squares method.

For another data set, the target named is T2, COX-II (Homo sapiens, UniProt P35354).
T2 construct: incubation of the blood with 10 μL of 5 mg/mL lipopolysaccharide for 24 hrs at 37° C. for induction of COX-II; from tissue; host or cells: heparinized fresh human whole blood from volunteers, LPS-stimulated for 24 h; PGE2 read-out
T2 sequence (P35354 18-604): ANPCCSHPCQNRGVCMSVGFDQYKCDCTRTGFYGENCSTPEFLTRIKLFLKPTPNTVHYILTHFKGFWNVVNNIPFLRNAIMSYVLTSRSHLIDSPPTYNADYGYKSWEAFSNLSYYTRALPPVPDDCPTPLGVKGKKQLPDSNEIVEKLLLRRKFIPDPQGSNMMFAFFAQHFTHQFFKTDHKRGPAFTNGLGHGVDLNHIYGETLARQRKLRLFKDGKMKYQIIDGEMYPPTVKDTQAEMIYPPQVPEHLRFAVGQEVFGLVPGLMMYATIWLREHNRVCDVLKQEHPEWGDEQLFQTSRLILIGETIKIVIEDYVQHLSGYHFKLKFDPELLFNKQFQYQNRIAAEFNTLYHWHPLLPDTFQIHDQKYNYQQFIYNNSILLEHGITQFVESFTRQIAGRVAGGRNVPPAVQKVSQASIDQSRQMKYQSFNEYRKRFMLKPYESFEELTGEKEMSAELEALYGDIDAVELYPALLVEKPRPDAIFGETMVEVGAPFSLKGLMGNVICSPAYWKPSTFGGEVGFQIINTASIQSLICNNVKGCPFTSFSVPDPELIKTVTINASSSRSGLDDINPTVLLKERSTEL
Kind of data set: Whole blood assay for COX-II (LPS-induced PGE2 production). The data set is classed as cell-based. Conditions: lipopolysaccharide 24 hrs at 37° C. How it is done: Whole Blood Assay for COX-II
Fresh blood was collected in heparinized tubes by syringe from volunteers with consent. The subjects had no apparent inflammatory conditions and had not taken any medication for at least 7 days prior to blood collection.
500 μL aliquots of human whole blood were incubated with either 2 μL dimethyl sulfoxide vehicle or 2 μL of a test compound at final concentrations for 15 min at 37° C. This was followed by incubation of the blood with 10 μL of 5 mg/mL lipopolysaccharide for 24 hrs at 37° C. for induction of COX-II. Appropriate PBS treatments (no LPS) were used as blanks. At the end of the incubation, the blood was centrifuged at 6000×g for 5 min at 4° C. to obtain plasma. A 100 μL aliquot of plasma was mixed with 400 μL methanol for protein precipitation. The supernatant was obtained by centrifuging at 6000×g for 5 min at 4° C. and was assayed for prostaglandin E2 (PGE2) using a radioimmunoassay kit after conversion of PGE2 to its methyl oximate derivative according to the manufacturer's procedure.
For a test compound, the results were expressed as percent inhibition of PGE2 production relative to control incubations containing dimethyl sulfoxide vehicle. The data were analyzed by that a test compound at the indicated concentrations was changed log value and was applied simple linear regression. IC50 value was calculated by least squares method.

pIC50: −log10 of the molar value.

T1 sequence (P23219 24-599): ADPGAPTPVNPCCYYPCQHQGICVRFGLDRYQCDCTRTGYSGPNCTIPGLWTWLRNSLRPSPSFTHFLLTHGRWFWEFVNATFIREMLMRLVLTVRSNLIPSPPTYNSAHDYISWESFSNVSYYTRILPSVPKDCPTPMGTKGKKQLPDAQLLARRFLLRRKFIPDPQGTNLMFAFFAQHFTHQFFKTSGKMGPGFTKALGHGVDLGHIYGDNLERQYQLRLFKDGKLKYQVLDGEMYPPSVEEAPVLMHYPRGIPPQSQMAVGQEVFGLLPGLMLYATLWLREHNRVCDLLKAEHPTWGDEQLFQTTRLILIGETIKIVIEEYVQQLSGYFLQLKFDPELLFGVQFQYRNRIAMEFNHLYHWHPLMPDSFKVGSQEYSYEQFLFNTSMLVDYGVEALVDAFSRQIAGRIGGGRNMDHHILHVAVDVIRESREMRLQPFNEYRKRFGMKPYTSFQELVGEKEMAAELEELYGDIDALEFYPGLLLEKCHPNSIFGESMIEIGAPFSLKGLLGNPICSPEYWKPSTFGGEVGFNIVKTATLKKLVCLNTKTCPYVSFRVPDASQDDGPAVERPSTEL

For orientation: melting point means the temperature of the solid-liquid transition. In turn, `COc1ccc(-c2nc(C(C)=O)oc2-c2ccc(OC)cc2)cc1` [Example 5, 1-[4,5-Bis(4-methoxyphenyl)-1,3-oxazol-2-yl]ethanone] displayed a melting point of 139 to 140 °C.
By pIC50 is commonly meant −log10 of the IC50, conventionally taken in molar units. A higher pIC50 goes with a low IC50. With `COc1ccc(-c2nc(C3CC3)oc2-c2ccc(OCCNS(C)(=O)=O)cc2)cn1` [Example 122, N-(2-{4-[2-Cyclopropyl-4-(6-methoxy-3-pyridinyl)-1,3-oxazol-5-yl]phenoxy}ethyl)methanesulfonamide], the “The coefficient of analgesic” value with arthritic rats is >1.5. The figures for the pIC50 on COX-I and against COX-II were > 8.00 and < 7.00, respectively.
On the same counts, the results for `COc1ccc(-c2nc(C(F)(F)F)oc2-c2ccc(OCCNS(C)(=O)=O)cc2)cn1` [Example 54, N-(2-{4-[4-(6-Methoxy-3-pyridinyl)-2-(trifluoromethyl)-1,3-oxazol-5-yl]phenoxy}ethyl)methanesulfonamide] are >1.5, > 8.00 and < 7.00.
`COc1ccc(-c2nc(C(=O)c3ccccc3)oc2-c2ccc(OC)cc2)cc1` [Example 6, [4,5-Bis(4-methoxyphenyl)-1,3-oxazol-2-yl](phenyl)methanone]: the melting point was 164 to 166 °C.
For the molecule `COc1ccc(-c2nc(C(N)=O)oc2-c2ccc(OC)cc2)cc1` [Example 2, 4,5-Bis(4-methoxyphenyl)-1,3-oxazole-2-carboxamide], the melting point is 133 to 135 °C.
Turning to `COc1ccc(-c2nc(C(F)(F)F)oc2-c2ccc(OCCNC(N)=O)cc2)cn1` [Example 55, N-(2-{4-[4-(6-Methoxy-3-pyridinyl)-2-(trifluoromethyl)-1,3-oxazol-5-yl]phenoxy}ethyl)urea], the “The coefficient of analgesic” value with arthritic rats is listed as >1.5. Moreover, the values for the negative-log IC50 (pIC50) against COX-I and against COX-II were > 8.00 and < 7.00, respectively.
Regarding `COc1ccc(-c2nc(C(F)F)oc2-c2ccc(OCCO)cc2)cc1` [Example 12, 2-{4-[2-(Difluoromethyl)-4-(4-methoxyphenyl)-1,3-oxazol-5-yl]phenoxy}ethanol], the melting point fell in the range of 114 to 116 °C. Besides, the “The coefficient of analgesic” value in the data set with arthritic rats was >1.5. For the same molecule, the pIC50 at COX-I is > 8.00. In addition, the negative-log IC50 (pIC50) on COX-II was < 7.00.
As to `COc1ccc(-c2nc(C3CC3)oc2-c2ccc(OCCO)cc2)cn1` [Example 118, 2-{4-[2-Cyclopropyl-4-(6-methoxy-3-pyridinyl)-1,3-oxazol-5-yl]phenoxy}ethanol], in the data set on arthritic rats, the “The coefficient of analgesic” value is listed as >1.5. Also, the pIC50 is > 8.00 against COX-I and < 7.00 at COX-II.
The molecule `COCc1nc(-c2ccc(OC)cc2)c(-c2ccc(C#N)cc2)o1` [Example 80-3, 4-[2-(Methoxymethyl)-4-(4-methoxyphenyl)-1,3-oxazol-5-yl]benzonitrile] came in with a melting point of 85 to 86 °C.
Turning to `COc1ccc(-c2oc(C(=O)c3ccccc3)nc2-c2ccc(OC)nc2)cc1` [Example 73, [5-(4-Methoxyphenyl)-4-(6-methoxy-3-pyridinyl)-1,3-oxazol-2-yl](phenyl)methanone], the melting point lay in the range of 156 to 158 °C.
In turn, `CCOC(=O)c1nc(-c2ccc(OC)cc2)c(-c2ccc(OC)cc2)o1` [Example 1-2, Ethyl 4,5-bis(4-methoxyphenyl)-1,3-oxazole-2-carboxylate] registered a melting point of 95 to 97 °C.
Molecule `COc1ccc(-c2oc(C(F)F)nc2-c2ccc(OC)nc2)cc1` [Example 77, 5-[2-(Difluoromethyl)-5-(4-methoxyphenyl)-1,3-oxazol-4-yl]-2-methoxypyridine] came in with a melting point of 87 to 89 °C.
`COc1ccc(-c2oc(CO)nc2-c2ccc(C#N)cc2)cc1` [Example 79, 4-[2-(Hydroxymethyl)-5-(4-methoxyphenyl)-1,3-oxazol-4-yl]benzonitrile] displayed a melting point of 151 to 153 °C.
Consider `COc1ccc(-c2nc(C(F)F)oc2-c2ccc(OCCO)cc2)cn1` [Example 33, 2-{4-[2-(Difluoromethyl)-4-(6-methoxy-3-pyridinyl)-1,3-oxazol-5-yl]phenoxy}ethanol], for which the melting point was 126 to 128 °C. In addition, the “The coefficient of analgesic” value in the data set on arthritic rats was >1.5. Also, the pIC50 against COX-I is > 8.00. Also, on COX-II, the pIC50 was < 7.00.

For the origin of these results see US20040157891A1, “Inhibitor of cox” (FUJISAWA PHARMACEUTICAL CO., LTD., priority 2003, published 2004).
